Assays:
[1] = "Electrically-provoked combat" test (anxiolytic action); format: in vivo, mouse; settings: for protection against anxiety: same experimental conditions
From the text: Under certain conditions, a pair of mice reacts to an electric stimulus by a series of combats which are provoked by the anxiety felt by the animals as a result of the electric shock. This anxiety is expressed by a combat with the other animal which is rendered responsible. For this reason, the test described hereunder can be considered as a means of evaluating the anxiolytic action of a compound. Two mice which have been previously on a diet consisting only of water are placed together in a cage. They are then submitted to a series of electric impulses of an intensity varying between 40 and 80 volts according to the sensitivity of the animals. The test is first carried out with untreated animals as controls and then with the same animals treated 30 minutes before the test with a dose of the compound to be studied.
Note is taken on the number of combats engaged. The results are expressed in percentage of decrease in the number of combats engaged by the treated animals in comparison with the number of combats registered before treatment.

[2] = Action on the pentylenetetrazole-induced seizure (anticonvulsant activity); format: in vivo, mouse
Procedure: The purpose of this test which is carried out on mice is to determine whether the compounds of the invention, when given preventively by oral route, are capable at certain doses of protecting some of the animals against the epileptic seizure produced by a predetermined dose of pentylenetetrazole which would be 100% fatal in the absence of the compound.
The compound to be studied was administered fifteen minutes before an injection of 125 mg/kg of pentylenetetrazole and note was taken of the number of deaths occurring during the three hours following this injection. The results were expressed in percentage of protection of the animals against death at the dose studied.

[3] = rota rod test (neurotoxicity); format: in vivo, mouse; settings: for % of failures in rota rod test: mice, 30 min after administration; for Rota rod (% of failures): comparison at 25%-protection dose of four plates test
Procedure: The test used was that known as the rota rod test described by BOISSIER (Therapie 1958 XIII pp. 1074-1118).
This test aims at determining the ability of mice to coordinate their movements by seeing to what extent they can remain on a roller turning at a rate of 4 revolutions per minute for two minutes. The trial was carried out thirty minutes after administration by oral route of the compound to be studied and the percentage of failures was noted.
The value of this test is twofold. Failure on the part of the animals gives a very early indication of the slightest damage to the meuromuscular functions which cannot be discerned by any other means. Secondly, this test serves as an element of comparison for drawing up index figures involving the results obtained with other tests.

[4] = Action with respect to tremorine (cholinolytic properties); format: in vivo, mouse; settings: 100 mg/kg oral, mice, 30 min before 100 mg/kg i.p. tremorine
Procedure: This test has been described by EVERETT (Nature, 1956, 177-238)
When injected into mice, tremorine produces peripheral cholinergic effects i.e. weeping, hypersalivation, sedation, diarrhea as well as central cholinergic effects i.e. tremors, akinesia.
Batches of 10 mice separated into individual cages, were given the compound to be studied, by oral route, 30 minutes before administration of an intraperitoneal dose of 100 mg/kg of tremorine.
Note was then taken in each batch of the percentage of animals presenting the various symptoms of tremorine-induced poisoning since at such a dose of tremorine 100% of the control animals are poisoned.
The results hereunder are expressed in percentage of mice protected against tremor at the dose of the compound of the invention which was administered: […]

[5] = Four plates test (anxiolytic action); format: in vivo, mouse; settings: for ED25: po, read-out: ED25 in the four plates test (dose which offers 25%-protection against anxiety); for positive result in four plates test without sedative effect: at ED25 of four plates test
From the text: This test, which is specific to the anxiolytics, was undertaken with the mouse, thirty minutes after the oral administration of the compound to be studied.
It consists in placing mice in a box with fairly high walls, of which the bottom comprises four square plates. These plates, which all have the same dimensions, are separated from each other by a central axis and are alternately electrified by the positive and negative poles of a source of electric current. There is a space of a few millimeters between adjacent plates.
The mouse placed in this apparatus explores it and thus passes over the different plates in succession. Note is taken of the number of times each animal passes over the plates during one minute. When the current is switched on, the mouse passing over the plates receives an electric shock (80 V), which provokes a gradual decrease in the exploratory movements, and finally brings the animals to a complete stop.
Anxiolytic agents enable the animals to become more or less indifferent to the electric shock.
The percentage of protection against anxiety given by compounds of the invention was calculated by comparing the number of times the control animals passed over the plates when electrified with the number of times the treated animals passed over the electrified plates.

[6] = Aggressivity of the isolated mouse (antiaggressive activity); format: in vivo
From the text: If a male mouse is isolated in a cage for three to four weeks, it will spontaneously attack any other animal of the same species which is placed in the same cage.
Mice wer isolated for the period of time required to render them spontaneously aggressive. Two mice, one rendered aggressive and one in a normal non-aggressive state, were then placed together and note was taken of the number of attacks by the aggressive mouse which occurred over a period of three minutes.
Each batch was composed of five pairs of animals.
The aggressive animals of each batch were then treated by oral route with the compound to be studied which was administered in such a way that the aggressive animals of each batch received a higher dose than those of the preceding batch.
Thirty minutes after administration, the couples were placed together again for a further three minutes and the number of attacks noted.

[7] = spontaneous motoricity in the mouse; format: in vivo; settings: for Spontaneous motoricity (% of decrease): comparison at 25%-protection dose of four plates test
From the text: This test is described in U.S. Pat. No. 3,929,869.

[8] = Mus musculus, po, 3 h, read-out: % of protection against death
[9] = Mus musculus, 0.5 h, mice, 30 min before test, read-out: % of decrease in number of combats
[10] = at the dose which provokes a 60%-decrease in the number of combats

SMILES: CCC#CC(CCC)(CCC)NC(N)=O [Compound B, 1-(1,1-Di-n-propyl-2-pentynyl)-urea]
- inhibition in vivo at 56.5 mg/kg ([1]; Mus musculus, 0.5 h, 56.5 mg/kg, mice, 30 min before test, read-out: % of decrease in number of combats): 52%

SMILES: CC#CC(CCC)(CCC)NC(N)=O [Compound D, 1-(1,1-Di-n-propyl-2-butynyl)-urea]
- inhibition in vivo at 74 mg/kg ([1]; Mus musculus, 0.5 h, 74 mg/kg, mice, 30 min before test, read-out: % of decrease in number of combats): 50%
- responders at 80.5 mg/kg [2, 8]: 50%
- anticonvulsant activity (in words) ([2]; pentylenetetrazole-induced seizure, mice, oral): considerable
- % of failures in rota rod test ([3]; 250 mg/kg oral): 50%

SMILES: C=CCC(CCC)(CCC)NC(N)=O [Compound E, 1-(1,1-Di-n-propyl-3-butenyl)-urea]
- inhibition in vivo at 50 mg/kg ([1]; Mus musculus, 0.5 h, 50 mg/kg, mice, 30 min before test, read-out: % of decrease in number of combats): 70%
- responders at 300 mg/kg [2, 8]: 90%
- % of protection against tremor [4]: 0%
- inhibition in vivo at 100 mg/kg ([5]; 0.5 h, 100 mg/kg oral, mouse, 30 min after administration, read-out: % of protection against anxiety): 27%

SMILES: CCC(CC)(CC)NC(N)=O [Compound F, 1-(1,1-Diethyl-n-propyl)-urea]
- inhibition in vivo at 82 mg/kg ([1]; Mus musculus, 0.5 h, 82 mg/kg, mice, 30 min before test, read-out: % of decrease in number of combats): 50%
- responders at 150 mg/kg [2, 8]: 50%
- inhibition in vivo at 175 mg/kg ([5]; 0.5 h, 175 mg/kg oral, mouse, 30 min after administration, read-out: % of protection against anxiety): 16%

SMILES: CCCCC(C)(CC)NC(N)=O (stereo not shown) [Compound G, 1-(1-Methyl-1-ethyl-pentyl)-urea]
- inhibition in vivo at 94 mg/kg ([1]; Mus musculus, 0.5 h, 94 mg/kg, mice, 30 min before test, read-out: % of decrease in number of combats): 48%
- responders at 188 mg/kg [2, 8]: 20%
- inhibition in vivo at 282 mg/kg ([5]; 0.5 h, 282 mg/kg oral, mouse, 30 min after administration, read-out: % of protection against anxiety): 18%

SMILES: CCCC(CCC)(NC(N)=O)C(C)C [Compound H, 1-(1-n-Propyl-1-isopropyl-n-butyl)-urea]
- inhibition in vivo at 110 mg/kg ([1]; Mus musculus, 0.5 h, 110 mg/kg, mice, 30 min before test, read-out: % of decrease in number of combats): 50%
- inhibition in vivo at 250 mg/kg ([5]; 0.5 h, 250 mg/kg oral, mouse, 30 min after administration, read-out: % of protection against anxiety): 39%

SMILES: CCCC(CCC)(CCC)NC(=O)N(C)C [Compound I, 1-(1,1-Di-n-propyl-n-butyl)-3,3-dimethyl-urea]
- inhibition in vivo at 200 mg/kg [1, 9]: 55%
- inhibition in vivo at 350 mg/kg ([5]; 0.5 h, 350 mg/kg oral, mouse, 30 min after administration, read-out: % of protection against anxiety): 29%

SMILES: CCCCC(CCCC)(CCCC)NC(N)=O [Compound J, 1-(1,1-Di-n-butyl-n-pentyl)-urea]
- inhibition in vivo at 200 mg/kg [1, 9]: 67%
- % of failures in rota rod test ([3]; 500 mg/kg oral): 0%

SMILES: CCCC(CCC)(CCC)NC(=O)NC [Compound K, 1-(1,1-Di-n-propyl-n-butyl)-3-methyl-urea]
- inhibition in vivo at 200 mg/kg [1, 9]: 42%
- responders at 200 mg/kg ([2]; Mus musculus, 3 h, 200 mg/kg oral, mice, 15 min before 125 mg/kg pentylenetetrazole, read-out: % of protection against death): 30%
- failures in the rota rod test ([3]; 300 mg/kg oral, mouse (ED25 in four plates test)): no failures
- % of failures in rota rod test ([3]; 600 mg/kg oral): 0%
- sedative effect relative to reference products ([3]; at ED25 of four plates test): much less sedative than diazepam and meprobamate
- inhibition in vivo at 300 mg/kg ([5]; 0.5 h, 300 mg/kg oral, mouse, 30 min after administration, read-out: % of protection against anxiety): 25%
- ED25 ([5]; 0.5 h, mouse): 300 mg/kg

SMILES: C=CCC(CCC)(CCC)NC(=O)NC [Compound L, 1-(1,1-Di-n-propyl-3-butenyl)-3-methyl-urea]
- inhibition in vivo at 228 mg/kg ([1]; Mus musculus, 0.5 h, 228 mg/kg, mice, 30 min before test, read-out: % of decrease in number of combats): 53%

SMILES: C#CCNC(=O)NC(CCC)(CCC)CCC [Compound M, 1-(1,1-Di-n-propyl-n-butyl)-3-(2-propynyl)-urea]
- inhibition in vivo at 254 mg/kg ([1]; Mus musculus, 0.5 h, 254 mg/kg, mice, 30 min before test, read-out: % of decrease in number of combats): 56%
- % of failures in rota rod test ([3]; 635 mg/kg oral): 0%

SMILES: C=CCNC(=O)NC(CCC)(CCC)CCC [Compound N, 1-(1,1-Di-n-propyl-n-butyl)-3-(2-propenyl)-urea]
- inhibition in vivo at 360 mg/kg ([1]; Mus musculus, 0.5 h, 360 mg/kg, mice, 30 min before test, read-out: % of decrease in number of combats): 30%
- responders at 240 mg/kg ([2]; Mus musculus, 3 h, 240 mg/kg oral, mice, 15 min before 125 mg/kg pentylenetetrazole, read-out: % of protection against death): 20%
- % of failures in rota rod test ([3]; 720 mg/kg oral): 0%

SMILES: CCCC(CCC)(CC(C)C)NC(N)=O [Compound P, 1-(1,1-Di-n-propyl-3-methyl-n-butyl)-urea]
- inhibition in vivo at 460 mg/kg ([1]; Mus musculus, 0.5 h, 460 mg/kg, mice, 30 min before test, read-out: % of decrease in number of combats): 31%
- % of failures in rota rod test ([3]; 690 mg/kg oral): 0%

SMILES: CN1C(=O)CN=C(c2ccccc2)c2cc(Cl)ccc21 [diazepam, reference compound]
- protection against anxiety ([1]; 0.69 mg/kg): 50%
- decrease in number of combats obtainable without altering spontaneous motoricity ([1]; mice, without action on spontaneous motoricity): ≤ 15%
- failures in the rota rod test [3, 10]: 12%
- Rota rod (% of failures) ([3]; 2 mg/kg): 35%
- sedative effects ([6]; 8 mg/kg): strongly sedative
- reduction in the number of attacks ([6]; 8 mg/kg (strongly sedative), isolated mouse): 38%
- activity in the isolated mouse test ([6]; doses active in four plates and electrically-provoked combat tests): devoid of activity
- antiaggressive effect ([6]; up to 4 mg/kg, isolated mouse): no results
- Spontaneous motoricity (% of decrease) ([7]; 2 mg/kg): 57%
- decrease in spontaneous motoricity at dose giving 80% reduction in combats ([7]; dose producing 80% decrease in the number of combats): 40%
- positive result in four plates test without sedative effect [5]: impossible
- ED25 ([5]; 0.5 h, mouse): 2 mg/kg
- ED50 in the four plates test ([5]; sedative effects too intense above 2 mg/kg): not possible to obtain a ED50

SMILES: CCCC(C)(COC(N)=O)COC(N)=O [meprobamate, reference compound]
- protection against anxiety ([1]; 70 mg/kg): 50%
- rota rod test effect ([3]; 170 mg/kg (ED50 in isolated mouse test)): 75%
- failures in the rota rod test [3, 10]: 35%
- Rota rod (% of failures) ([3]; 79 mg/kg): 30%
- sedative effects at antiaggressive dose ([6]; 170 mg/kg): considerable
- ED50 ([6]; 0.5 h, oral, isolated mouse, 30 min after administration, read-out: ED50 (50% fewer attacks)): 170 mg/kg
- Spontaneous motoricity (% of decrease) ([7]; 79 mg/kg): 11%
- positive result in four plates test without sedative effect [5]: impossible
- ED25 ([5]; 0.5 h, mouse): 79 mg/kg
